Data taken from patent publication US11590139B2, “Substituted aminopurine compounds, compositions thereof, and methods of treatment therewith” (Signal Pharmaceuticals, LLC, priority 2014, dated 2023).
pIC50: −log10 of the molar value.

Tested on: Lox-IMVI melanoma cell line
Assay: Lox-IMVI anti-proliferative assay (growth inhibition, Cell Titer-Glo)
Format: cell-based, human
Conditions: Homo sapiens; Lox-IMVI melanoma cell line, anti-proliferative assay; read-out: Activity (IC50 activity level)
In short: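 RPMI/10% FBS; cmpd 0.5 nM–10 μM, 3-fold ×10, duplicate, 0.2% DMSO final; 72 h, 37 °C, 5% CO2. ATP-luminescence readout at t0 and 72 h. IC50 = 50% of DMSO control, 4-parameter logistic fit.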

| SMILES | pIC50 |
| --- | --- |
| N#Cc1cc(Cl)c(Nc2nc3cnc(NC4CCC(c5ncno5)CC4)nc3n2[C@H]2CC[C@@H](C(N)=O)CC2)c(Cl)c1 (stereo partly drawn) [Example 681, (1s,4s)-4-(2-(4-(1,2,4-oxadiazol-5-yl)cyclohexylamino)-8-(2,6-dichloro-4-cyanophenylamino)-9H-purin-9-yl)cyclohexanecarboxamide] | < 6.00 |
| N#Cc1cc(F)c(Nc2nc3cnc(N[C@@H]4CCC(O)C4)nc3n2[C@H]2CC[C@@H](C(N)=O)CC2)c(Cl)c1 (stereo partly drawn) [Example 682, (1S,4s)-4-(8-(2-chloro-4-cyano-6-fluorophenylamino)-2-((1R,3R)-3-hydroxycyclopentylamino)-9H-purin-9-yl)cyclohexanecarboxamide] | > 6.60 |
| N#Cc1cc(Cl)c(Nc2nc3cnc(N[C@@H]4CCC(O)C4)nc3n2[C@H]2CC[C@@H](C(N)=O)CC2)c(Cl)c1 (stereo partly drawn) [Example 683, (1S,4s)-4-(8-(2,6-dichloro-4-cyanophenylamino)-2-((1R,3R)-3-hydroxycyclopentylamino)-9H-purin-9-yl)cyclohexanecarboxamide] | > 6.60 |
| N#Cc1cc(Cl)c(Nc2nc3cnc(N[C@@H]4CCC[C@@H](O)C4)nc3n2[C@H]2CC[C@@H](C(N)=O)CC2)c(Cl)c1 [Example 684, (1S,4s)-4-(8-(2,6-dichloro-4-cyanophenylamino)-2-((1R,3R)-3-hydroxycyclohexylamino)-9H-purin-9-yl)cyclohexanecarboxamide] | 6.00 to 6.30 |
| N#Cc1cc(F)c(Nc2nc3cnc(N[C@@H]4CCC[C@@H](O)C4)nc3n2[C@H]2CC[C@@H](C(N)=O)CC2)c(Cl)c1 [Example 685, (1S,4s)-4-(8-(2-chloro-4-cyano-6-fluorophenylamino)-2-((1R,3R)-3-hydroxycyclohexylamino)-9H-purin-9-yl)cyclohexanecarboxamide] | 6.00 to 6.30 |
| N#Cc1cc(Cl)c(Nc2nc3cnc(N[C@H]4CCC[C@@H](O)C4)nc3n2[C@H]2CC[C@@H](C(N)=O)CC2)c(Cl)c1 [Example 686, (1R,4s)-4-(8-(2,6-dichloro-4-cyanophenylamino)-2-((1S,3R)-3-hydroxycyclohexylamino)-9H-purin-9-yl)cyclohexanecarboxamide] | 6.00 to 6.30 |
| N#Cc1cc(F)c(Nc2nc3cnc(N[C@H]4CCC[C@@H](O)C4)nc3n2[C@H]2CC[C@@H](C(N)=O)CC2)c(Cl)c1 [Example 687, (1R,4s)-4-(8-(2-chloro-4-cyano-6-fluorophenylamino)-2-((1S,3R)-3-hydroxycyclohexylamino)-9H-purin-9-yl)cyclohexanecarboxamide] | < 6.00 |
| N#Cc1cc(Cl)c(Nc2nc3cnc(N[C@H]4CCC[C@H](O)C4)nc3n2[C@H]2CC[C@@H](C(N)=O)CC2)c(Cl)c1 [Example 688, (1R,4s)-4-(8-(2,6-dichloro-4-cyanophenylamino)-2-((1S,3S)-3-hydroxycyclohexylamino)-9H-purin-9-yl)cyclohexanecarboxamide] | 6.30 to 6.60 |
| N#Cc1cc(F)c(Nc2nc3cnc(N[C@H]4CCC[C@H](O)C4)nc3n2[C@H]2CC[C@@H](C(N)=O)CC2)c(Cl)c1 [Example 689, (1R,4s)-4-(8-(2-chloro-4-cyano-6-fluorophenylamino)-2-((1S,3S)-3-hydroxycyclohexylamino)-9H-purin-9-yl)cyclohexanecarboxamide] | 6.30 to 6.60 |
| NC(=O)[C@H]1CC[C@@H](n2c(Nc3c(Cl)cc(Br)cc3Cl)nc3cnc(NC4CCOCC4)nc32)CC1 [Example 690, (1s,4s)-4-(8-(4-bromo-2,6-dichlorophenylamino)-2-(tetrahydro-2H-pyran-4-ylamino)-9H-purin-9-yl)cyclohexanecarboxamide] | > 6.60 |
| NC(=O)[C@H]1CC[C@@H](n2c(Nc3c(Cl)cc(Br)cc3Cl)nc3cnc(NC4CCC(F)(F)CC4)nc32)CC1 [Example 691, (1s,4s)-4-(8-(4-bromo-2,6-dichlorophenylamino)-2-(4,4-difluorocyclohexylamino)-9H-purin-9-yl)cyclohexanecarboxamide] | 6.00 to 6.30 |
| NC(=O)[C@H]1CC[C@@H](n2c(Nc3c(F)cc(F)cc3Cl)nc3cnc(N[C@H]4CCOC[C@H]4F)nc32)CC1 [Example 692, (1R,4s)-4-(8-(2-chloro-4,6-difluorophenylamino)-2-((3S,4S)-3-fluorotetrahydro-2H-pyran-4-ylamino)-9H-purin-9-yl)cyclohexanecarboxamide] | > 6.60 |
| N#Cc1ccc(Nc2nc3cnc(NC4CCCC4)nc3n2[C@H]2CC[C@@H](C(N)=O)CC2)c(Cl)c1Cl [Example 693, (1s,4s)-4-(2-(cyclopentylamino)-8-(2,3-dichloro-4-cyanophenylamino)-9H-purin-9-yl)cyclohexanecarboxamide] | < 6.00 |
| C[C@@H](CO)Nc1ncc2nc(Nc3ccc(C#N)c(Cl)c3Cl)n([C@H]3CC[C@@H](C(N)=O)CC3)c2n1 [Example 694, (1R,4s)-4-(8-(2,3-dichloro-4-cyanophenylamino)-2-((S)-1-hydroxypropan-2-ylamino)-9H-purin-9-yl)cyclohexanecarboxamide] | < 6.00 |
| N#Cc1ccc(Nc2nc3cnc(NC4CCC(F)(F)CC4)nc3n2[C@H]2CC[C@@H](C(N)=O)CC2)c(Cl)c1Cl [Example 695, (1s,4s)-4-(8-(2,3-dichloro-4-cyanophenylamino)-2-(4,4-difluorocyclohexylamino)-9H-purin-9-yl)cyclohexanecarboxamide] | < 6.00 |
| N#Cc1ccc(Nc2nc3cnc(NC4CCOCC4)nc3n2[C@H]2CC[C@@H](C(N)=O)CC2)c(Cl)c1Cl [Example 696, (1s,4s)-4-(8-(2,3-dichloro-4-cyanophenylamino)-2-(tetrahydro-2H-pyran-4-ylamino)-9H-purin-9-yl)cyclohexanecarboxamide] | 6.00 to 6.30 |
| N#Cc1cc(F)c(Nc2nc3cnc(N[C@@H]4CCC(F)(F)C4)nc3n2[C@H]2CC[C@@H](C(N)=O)CC2)c(F)c1 [Example 697, (1S,4s)-4-(8-(4-cyano-2,6-difluorophenylamino)-2-((R)-3,3-difluorocyclopentylamino)-9H-purin-9-yl)cyclohexanecarboxamide] | 6.30 to 6.60 |
| N#Cc1cc(F)c(Nc2nc3cnc(N[C@@H]4CCC(F)(F)C4)nc3n2[C@H]2CC[C@@H](C(N)=O)CC2)c(Cl)c1 [Example 698, (1S,4s)-4-(8-(2-chloro-4-cyano-6-fluorophenylamino)-2-((R)-3,3-difluorocyclopentylamino)-9H-purin-9-yl)cyclohexanecarboxamide] | > 6.60 |
| N#Cc1cc(Cl)c(Nc2nc3cnc(N[C@@H]4CCC(F)(F)C4)nc3n2[C@H]2CC[C@@H](C(N)=O)CC2)c(Cl)c1 [Example 699, (1S,4s)-4-(8-(2,6-dichloro-4-cyanophenylamino)-2-((R)-3,3-difluorocyclopentylamino)-9H-purin-9-yl)cyclohexanecarboxamide] | 6.30 to 6.60 |
| CS(=O)(=O)N1CCC[C@@H](Nc2ncc3nc(Nc4c(Cl)cc(Cl)cc4Cl)n([C@H]4CC[C@@H](C(N)=O)CC4)c3n2)C1 [Example 700, (1S,4s)-4-(2-((R)-1-(methylsulfonyl)piperidin-3-ylamino)-8-(2,4,6-trichlorophenylamino)-9H-purin-9-yl)cyclohexanecarboxamide] | 6.00 to 6.30 |
| CS(=O)(=O)N1CCC[C@@H](Nc2ncc3nc(Nc4c(F)cc(Cl)cc4Cl)n([C@H]4CC[C@@H](C(N)=O)CC4)c3n2)C1 [Example 701, (1S,4s)-4-(8-(2,4-dichloro-6-fluorophenylamino)-2-((R)-1-(methylsulfonyl)piperidin-3-ylamino)-9H-purin-9-yl)cyclohexanecarboxamide] | 6.00 to 6.30 |
